Results from PMC9925730, “Controlled sequential in situ self-assembly and disassembly of a fluorogenic cisplatin prodrug for cancer theranostics” (Nature Communications, 2023).
Values joined by “and” are separate entries in the source; they are usually repeats but may differ in a detail not shown here. Equal entries are not always repeated.

What was measured:
[1] = NIR FL, PA and absorption signals of Pt^IVNPs in solution in response to GSH; conditions: P-CyPt 10 μM
Experimental: To monitor the NIR FL and PA imaging signals of P-CyPt in response to ALP, P-CyPt (10 μM) in Tris buffer (1 mL) was incubated with ALP (100 U/L) at 37 °C for 0, 5, 10, 15, 20, and 30 min. To monitor the NIR FL and PA imaging signals of Pt^IVNPs in response to GSH, P-CyPt (10 μM) in Tris buffer (1 mL) was first incubated with ALP (100 U/L) at 37 °C for 30 min and then incubated with 10 mM GSH at 37 °C for another 10, 20, 30, 40, 50, and 60 min. The NIR FL spectra of these solutions at each time point were acquired on a HORIBA Jobin Yvon Fluoromax-4 fluorescence spectrometer, with excitation at 680 nm. For PA imaging, the incubation solutions at each time point were loaded into a fine bore polythene tube ([…], 1.27 mm OD). The tubes were then sealed and immersed in water. The PA images at both 700 and 750 nm were acquired on the Vevo 2100 LAZR system (FUJIFILM VisualSonics).

[2] = test system: HeLa cells; assay: Distribution of Pt element in subcellular organelles (ICP-OES); type: cell-based
Experimental: Supplementary Table 3. Comparison of the distribution of Pt element in different subcellular organelles between P-CyPt and CDDP. a Subcellular Amount of Pt distributed in a Percentage of Pt distributed in organelles single cell’s organelle (fmol) b a single cell’s organelle (%) c […]
a HeLa cells were incubated with P-CyPt or CDDP (10 μM) for 1 h. After that, the cells were washed with PBS for three times, replaced with blank medium and cultured for another 24 h. The cells were trypsinized, collected, and the cell numbers were counted.
The cell pellets were dispersed in PBS buffer, lysed via ultrasound sonication, and centrifuged at different speed to separate membrane, nucleus, lysosome together with mitochondria, and cytoplasm. The concentration of Pt element in each organelle fraction was then measured by ICP-OES. Values denote mean ± s.d. (n = 3 independent […]
b The amount of Pt in a single HeLa cell’s subcellular organelle was calculated by dividing the total amount of Pt element in different subcellular organelles to the cell […]
c Percentage of Pt distributed in a single HeLa cell’s subcellular organelles was calculated by dividing the amount of Pt in a single cell’s subcellular organelles by the amount of Pt in a single cell (sum of organelles). […]
For Pt distribution analysis, the cells were treated with P-CyPt (10 μM) or CDDP (10 μM) for 1 h, and then washed with PBS for three times, followed by incubation with fresh medium for another 24 h. After that, cells were washed gently with 2 mL PBS once. The cells were trypsinized, centrifuged and counted. The cell lysates were separated according to a reported fragmentation procedure to obtained different cell fractions, including N (nuclei), M (plasma membrane), L (lysosomes and mitochondria) and C (cytosol). The Cells and different cell fractions were digested with concentrated HNO3 (65~70%) and HCl (36~38%) at 90 °C for 24 h. The solution was diluted to 5 mL 2% HNO3 and 5% HCl solution, and the concentration of Pt element was measured by ICP-OES, which was further applied to calculate the amount of Pt in cells and subcellular organelles. […]
The count number for each flow cytometry analysis was ~5000 to 10000, and the data was processed using FlowJo software.
Evaluation of the ability to break DNA double strand. Supercoiled pBR322 plasmi d DNA (20 ng μL–1) was incubated with blank Tris buffer (i) or Tris buffer containing GSH (2 mM, ii), Tris buffer containing CDDP (100 μM, iii), Tris buffer containing GSH (2 mM) and CDDP (100 μM, iv), Tris buffer containing P-CyPt (100 μM, v), Tris buffer containing P-CyPt (100 μM) and GSH (2 mM, vi), Tris buffer containing P-CyPt (100 μM) and ALP (500 U/L, vii), and Tris buffer containing P-CyPt (100 μM), ALP (500 U/L) and GSH (2 mM, viii) or incubated with P-CyPt ((0, 1, 2, 5, 10, 20, 50 and 100 μM, from i-viii) respectively in the presence of ALP (500 U/L), followed by incubation with GSH (2 mM) in Tris buffer) at 37 °C for 16 h. Then, the reactions (10 μL) were quenched by loading buffer (2 μL, including 30 mM EDTA, 36% glycerol, 0.05% xylene cyanol FF, and 0.05% bromophenol blue). The resulting solutions and 1kb-I DNA ladder (GsDL10001) were loaded into native agarose gel (1%) and subjected to electrophoresis in a TAE buffer (40 mM Tris acetate, 1 mM EDTA). The

[3] = test system: HeLa cells; assay: NIR FL and PA bimodality imaging of cell pellets; type: cell-based, human; conditions: for normalized FL of cell pellets (Fig. 3c): 30 min
[4] = ALP 30 min then GSH 10 mM 10 min (time 40)
[5] = ALP 30 min then GSH 10 mM 20 min (time 50)
[6] = ALP 30 min then GSH 10 mM 30 min (time 60)
[7] = ALP 30 min then GSH 10 mM 40 min (time 70)
[8] = ALP 30 min then GSH 10 mM 50 min (time 80)
[9] = ALP 30 min then GSH 10 mM 60 min (time 90)
[10] = Cytoplasm (C), individual samples
[11] = Cytoplasm (C), mean of 3 samples
[12] = HeLa, 10 μM 1 h, then blank medium 24 h
[13] = Membrane(M), individual samples
[14] = Mito&Lyso (L), individual samples
[15] = Mito&Lyso (L), mean of 3 samples
[16] = Nucleus (N), individual samples
[17] = HeLa, P-CyPt 10 μM 30 min then blank medium 3 h (Group II vs I)

Compound: CC1(C)C(/C=C/C2=C3Oc4cc(OP(=O)(O)O)c(Cl)cc4C=C3CCC2)=[N+](CCCNC(=O)[C@@H](Cc2ccccc2)NC(=O)[C@@H](Cc2ccccc2)NC(=O)CCC(=O)[O][Pt]([NH2])([NH2])([OH])([Cl])[Cl])c2ccccc21 [P-CyPt]
- normalized Abs. at 700 nm (Fig. 2j) [1, 4]: 1.037
- normalized Abs. at 750 nm (Fig. 2j) [1, 4]: 0.6059
- normalized FL intensity at 710 nm (Fig. 2k) [1, 4]: 15.4414
- normalized PA intensity at 700 nm (Fig. 2l) [1, 4]: 0.9827
- normalized PA intensity at 750 nm (Fig. 2l) [1, 4]: 0.8167
- normalized Abs. at 700 nm (Fig. 2j) [1, 5]: 1.054
- normalized Abs. at 750 nm (Fig. 2j) [1, 5]: 0.4238
- normalized FL intensity at 710 nm (Fig. 2k) [1, 5]: 19.7308
- normalized PA intensity at 700 nm (Fig. 2l) [1, 5]: 0.9792
- normalized PA intensity at 750 nm (Fig. 2l) [1, 5]: 0.6967
- normalized Abs. at 700 nm (Fig. 2j) [1, 6]: 1.062
- normalized Abs. at 750 nm (Fig. 2j) [1, 6]: 0.3077
- normalized FL intensity at 710 nm (Fig. 2k) [1, 6]: 25.1768
- normalized PA intensity at 700 nm (Fig. 2l) [1, 6]: 0.9821
- normalized PA intensity at 750 nm (Fig. 2l) [1, 6]: 0.5167
- normalized Abs. at 700 nm (Fig. 2j) [1, 7]: 1.0719
- normalized Abs. at 750 nm (Fig. 2j) [1, 7]: 0.2002
- normalized FL intensity at 710 nm (Fig. 2k) [1, 7]: 29.4155
- normalized PA intensity at 700 nm (Fig. 2l) [1, 7]: 0.9744
- normalized PA intensity at 750 nm (Fig. 2l) [1, 7]: 0.3617
- normalized Abs. at 700 nm (Fig. 2j) [1, 8]: 1.0764
- normalized Abs. at 750 nm (Fig. 2j) [1, 8]: 0.1155
- normalized FL intensity at 710 nm (Fig. 2k) [1, 8]: 34.4707
- normalized PA intensity at 700 nm (Fig. 2l) [1, 8]: 0.9821
- normalized PA intensity at 750 nm (Fig. 2l) [1, 8]: 0.2567
- normalized Abs. at 700 nm (Fig. 2j) [1, 9]: 1.084
- normalized Abs. at 750 nm (Fig. 2j) [1, 9]: 0.09482
- normalized FL intensity at 710 nm (Fig. 2k) [1, 9]: 35.3761
- normalized PA intensity at 700 nm (Fig. 2l) [1, 9]: 1.001
- normalized PA intensity at 750 nm (Fig. 2l) [1, 9]: 0.1807
- Amount of Pt in subcellular fraction [2, 10]: 10.4601 fmol and 9.6958 fmol and 8.113 fmol
- Distribution of Pt in subcellular fraction [2, 10]: 43.0958% and 39.9467% and 33.4263%
- Amount of Pt in subcellular fraction [2, 11]: 9.42 fmol
- Distribution of Pt in subcellular fraction [2, 11]: 38.82%
- Amount of Pt distributed in a single cell's organelle: Cytoplasm [2, 12]: 9.42 ± 1.20 fmol
- Amount of Pt distributed in a single cell's organelle: Lysosome & Mitochondria [2, 12]: 6.34 ± 0.81 fmol
- Amount of Pt distributed in a single cell's organelle: Membrane [2, 12]: 1.46 ± 0.19 fmol
- Amount of Pt distributed in a single cell's organelle: Nucleus [2, 12]: 7.05 ± 0.90 fmol
- Percentage of Pt distributed in a single cell's organelle: Cytoplasm (cytosol) [2, 12]: 38.82%
- Percentage of Pt distributed in a single cell's organelle: Lysosome & Mitochondria [2, 12]: 26.11% and ~ 26.11%
- Percentage of Pt distributed in a single cell's organelle: Membrane [2, 12]: 6.02%
- Percentage of Pt distributed in a single cell's organelle: Nucleus [2, 12]: 29.05% and ~ 29.05%
- Amount of Pt in subcellular fraction [2, 13]: 0.7699 fmol and 1.266 fmol and 2.345 fmol
- Distribution of Pt in subcellular fraction [2, 13]: 3.1718% and 5.2172% and 9.6606%
- Amount of Pt in subcellular fraction ([2]; Membrane(M), mean of 3 samples): 1.46 fmol
- Distribution of Pt in subcellular fraction ([2]; Membrane(M), mean of 3 samples): 6.02%
- Amount of Pt in subcellular fraction [2, 14]: 6.19 fmol and 6.277 fmol and 6.546 fmol
- Distribution of Pt in subcellular fraction [2, 14]: 25.5012% and 25.8599% and 26.9676%
- Amount of Pt in subcellular fraction [2, 15]: 6.34 fmol
- Distribution of Pt in subcellular fraction [2, 15]: 26.11%
- Amount of Pt in subcellular fraction [2, 16]: 6.061 fmol and 7.285 fmol and 7.806 fmol
- Distribution of Pt in subcellular fraction [2, 16]: 24.9722% and 30.0159% and 32.1624%
- Amount of Pt in subcellular fraction ([2]; Nucleus (N), mean of 3 samples): 7.05 fmol
- Distribution of Pt in subcellular fraction ([2]; Nucleus (N), mean of 3 samples): 29.05%
- normalized FL of cell pellets (Fig. 3c) ([3]; Group I: HeLa, P-CyPt 10 μM): 0.6736
- normalized FL of cell pellets (Fig. 3c) ([3]; Group II: HeLa, P-CyPt 10 μM, then blank medium 3 h): 1
- normalized FL of cell pellets (Fig. 3c) ([3]; Group III: HeLa preincubated with Na3VO4 (10 mM, 20 min), then P-CyPt 10 μM): 0.2415
- decrease of PA signal at 750 nm in cell pellets [3, 17]: ~ 3.5 fold
- increase of NIR FL in cell pellets [3, 17]: ~ 1.5 fold
